Measured values from patent US9925134B2, “Use of substances to protect FGF-2 or FGF-beta growth factor” (BASF Beauty Care Solutions France SAS, priority 2007, dated 2018).

Experiments:
FGF-2 [1] = target: T1, FGF-2 (Homo sapiens, UniProt P09038); test: Protection of FGF-2 against thermal degradation, stress of 2.15 hrs at 45° C., FGF-2 dosed by ELISA kit; assay type: biochemical; details: for FGF-2 protection by GAGs and proteoglycans of the skin (in words): solutions at 0.1%
Description: Degradation of FGF-2 observed at about 50° C. is particularly interesting, because a short period of time allows degradation of FGF-2 of about 80%, thereby allowing a large number of tests to be conducted. For this reason, it was decided to achieve screening with a stress of 2.15 hrs at 45° C. and to study the capacity of a large number of actives for protecting FGF-2 against this thermal degradation.
The applied screening model is the following: • 180 μl of a 4.5 ng/ml FGF-2 solution prepared in 0.1% BSA/PBS buffer are distributed in a 96-well microplate. 20 μl of distilled water or 0.05% heparin or a solution containing various active ingredients extracted from different plants to be tested are added. The plate is stirred by means of a plate stirrer and then covered with adhesive tape and placed in an oven at 45° C. for 2.15 hrs. At the end of the incubation period, the plate is taken out and dosage of FGF-2 is then carried out by means of the ELISA kit.
A control plate only containing FGF-2 and distilled water, treated under the same conditions, is left at room temperature.
The results are expressed as a FGF-2 protection percentage relatively to the non-stressed or non-degraded FGF-2 control.
The stress protocol described in Example 2 was applied, 20 μl of water being substituted with 20 μl of corresponding GAG or PG solution. The tested GAGs and PGs thereby undergo additional dilution to 1/10. […]
Target sequence in this assay (P09038 143-288): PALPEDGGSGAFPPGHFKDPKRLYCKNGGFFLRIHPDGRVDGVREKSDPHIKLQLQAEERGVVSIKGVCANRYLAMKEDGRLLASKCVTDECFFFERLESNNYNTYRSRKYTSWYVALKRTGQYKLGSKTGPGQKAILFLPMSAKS

normal human fibroblasts [2] = test: Stimulation of synthesis of sulfated GAGs, 35S-sulfate incorporation; assay type: cell-based; details: TGF-β 10 ng/ml
Description: (§1) Normal human fibroblasts stemming from a donor, were grown in 96-well plates with medium (consisting of DMEM, glutamine 2 mM, penicillin 50 IU/ml-streptomycin 50 μg/ml, 10% fetal calf serum) for 24 hrs. […] A control was made in parallel with the medium only.
(§2) At the end of the experiment, the supernatants are collected for dosing the incorporation of radioactive glucosamine into the intracellular proteins. Dosage of the proteins is performed with a commercial kit (BioRad 500-0116).
In the same way, a study of the incorporation of ^35S-sulfate is conducted for quantifying the sulfated GAGs. The applied procedure is the same as that for the total GAGs, except for the nature of the radioactive precursor.

normal human fibroblasts [3] = test: Stimulation of synthesis of total GAGs, radioactive glucosamine incorporation; assay type: cell-based; details: TGF-β 10 ng/ml; 72 hrs
Description: as §1
After 48 hrs of contact, radioactive glucosamine (D-(6-^3H)-glucosamine) is added to the medium.
as §2

FGF-2 [4] = target: T1, FGF-2; details: cited from earlier work
Target sequence in this assay (P09038 134-288 limits assumed): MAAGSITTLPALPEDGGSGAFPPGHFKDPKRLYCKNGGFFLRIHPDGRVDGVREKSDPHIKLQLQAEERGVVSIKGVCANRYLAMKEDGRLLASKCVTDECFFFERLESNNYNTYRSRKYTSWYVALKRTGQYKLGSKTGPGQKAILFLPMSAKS

FGF-2 [5] = target: T1, FGF-2; test: Protection of FGF-2 at physiological temperature, FGF-2 dosed after 24 hrs at 37° C.; assay type: biochemical; details: 0.01% heparin
Description: It was absolutely necessary to check whether the extract 5c was able to protect FGF-2 at a physiological temperature, i.e., 37° C. This is why an investigation consisted of dosing FGF-2 after 24 hrs at 37° C. in the absence or in the presence of increasing concentrations of extract 5c.
Target sequence in this assay (P09038 143-288): as the sequence (P09038 143-288) above

FGF-2 [6] = target: T1, FGF-2; details: 3 hours of incubation at 37° C.; cited from earlier work
Target sequence in this assay (P09038 134-288 limits assumed): as the sequence (P09038 134-288 limits assumed) above

FGF-2 [7] = target: T1, FGF-2; test: Study of thermal degradation (stability) of FGF-2 at various temperatures with or without heparin, ELISA; assay type: physicochemical; details: 0.05% heparin
Description: A 5 ng/ml solution of FGF-2 in a 10 mM PBS buffer with 0.1% BSA and 0.1% of methylparaben is prepared.
This solution is placed at various temperatures: 4° C., 20° C., 37° C., 50° C., and 80° C. either in the presence of heparin or not at 500 μg/ml.
Dosages of FGF-2 with a commercial ELISA kit (R&D system, France) are performed at different times (T=0, 3 hrs, 24 hrs and 48 hrs) so as to establish degradation kinetics for each temperature of investigation.
The results are expressed as a percentage of FGF-2 relative to time T=0. The experiments are conducted in triplicates (n=3). The obtained results are illustrated in FIGS. 1 and 2.
Target sequence in this assay (P09038 143-288): as the sequence (P09038 143-288) above

FGF-2 [8] = target: T1, FGF-2; details: pH 2 and pH 9 versus neutral pH; cited from earlier work
Target sequence in this assay (P09038 134-288 limits assumed): as the sequence (P09038 134-288 limits assumed) above

[9] = system: normal human dermal fibroblasts; test: Fibroblast proliferation by FGF-2 protected by heparin or extract 5c (PNPP); assay type: cell-based; details: for Proliferation (expressed as percent relative to the non-treated well): 48 hrs, heparin 0.01% during 24 hrs at 37° C.
Description: A solution of FGF-2 is prepared extemporaneously (=non-degraded FGF-2); a solution of FGF-2 is placed for 24 hrse at 37° C. in the absence (=degraded FGF-2) and in the presence of heparin (=FGF-2+heparin at 37° C.) at 0.01%.
Each FGF-2 solution is diluted so as to be applied on the cells, the final FGF-2 concentrations being the following: 0.1, 0.25, 0.5, 0.75 and 1 ng/ml.
Normal human dermal fibroblasts were sown at low density in 6-well plates. They were then grown in a medium in the absence (control) or in the presence of FGF-2 at various concentrations.
After 48 hrs, the activity of intracellular acid phosphatases (PNPP) is dosed, so as to be able to evaluate the effect of FGF-2 solutions, either treated or not, on cell proliferation.
The results are expressed as a proliferation percentage relative to the control well i.e. to the non-treated well.
The same experiment was conducted by replacing heparin with extract 5c. The FGF-2 solution put into the presence of 0.5% of extract 5c is placed for 24 hrs at 37° C. The solution is then diluted so as to apply 0.5 ng/ml of FGF-2 in the wells containing the fibroblasts.
The 5c extract concentration finally applied on the cells is 0.0025%. It was checked beforehand that this 5c extract concentration was not capable of inducing stimulation of the proliferation of fibroblasts. This means that the observed stimulation of proliferation is actually due to the protection of FGF-2 by extract 5c (see Table 8).

normal human fibroblasts [10] = test: Stimulation of collagen synthesis, 3H-proline incorporation; assay type: cell-based; details: Vitamin C 20 μg/ml; 48 hrs
Description: A control was made in parallel with medium only. After 24 hrs of contact, radioactive […]-proline) is added to the medium. At the end of the experiment, the supernatants are collected for dosing the incorporation of radioactive […] into the intracellular proteins.

[11] = 0.01%, 0.001%, further diluted 1/10, 45° C. 2.15 hrs

With heparan sulfate [Heparin sulfate] the “FGF-2 protection by GAGs and proteoglycans of the skin (in words)” value (“FGF-2 protection … (in words)” below) (FGF-2 [1]; [11]) was “protects FGF-2”.

In the case of TGF-β, the “% control, sulfated GAGs” value (normal human fibroblasts [2]) is reported as 176%, the “Activity (cpm), sulfated GAGs” value (normal human fibroblasts [2]) is reported as 5442 cpm and the “Ratio (act./Prot.), sulfated GAGs” value (normal human fibroblasts [2]) is reported as 1491. For the same molecule, the “% control, total GAGs” value (normal human fibroblasts [3]) was 240%, the “Activity (cpm), total GAGs” value (normal human fibroblasts [3]) was 2590 cpm and the “Ratio (act./Prot.), total GAGs” value (normal human fibroblasts [3]) was 709.

For heparin, the “Protection of the activity of FGF-2 by heparin (in words)” value (FGF-2 [4]; 0° C., 20° C., 37° C., 1 hr to 60 days) is given as “provides protection of the activity of FGF-2 over time”, the “Activity of FGF-2 in the presence of heparin (in words)” value (FGF-2 [4]; 60° C. and 90° C.) is given as “no activity is detected” and the “Protection of FGF-2, positive control” value (FGF-2 [1]; 0.01% heparin in the final reaction medium, 45° C. stress of Example 2) is given as 105.52%±3.04. For the same molecule, the “Protection of FGF-2, positive control” value (FGF-2 [5]) was 110.53%±3.20, the “Protection of FGF-2 against trypsin and chymotripsin (in words)” value (FGF-2 [6]) was “total protection of FGF-2” and the “Protection of FGF-2 by heparin (in words)” value (FGF-2 [7]; 80° C.) was “not effective”. The “Stability of FGF-2 in the presence of heparin (in words)” value (FGF-2 [7]; various temperatures) was “degradation is stopped”, the “Activity of FGF-2 at acid and basic pH in the presence of heparin (in words)” value (FGF-2 [8]) was “retain a similar (or even slightly weaker) activity of FGF-2” and the “Proliferation with FGF-2 protected by heparin (in words)” value ([9]; heparin 0.01%, up to 0.5 ng/ml FGF-2) was “proliferation is maintained”.

In the case of “Degraded FGF-2: solution of FGF-2 placed for 24 hrs at 37° C. in the absence of heparin”, the “Proliferation (as a percentage) of fibroblasts relative to the non-treated control” value ([9]; FGF-2 0.5 ng/ml, 0.5% 5c extract during 24 hrs at 37° C. (0.0025% on the cells)) is reported as 123.7% ± 0.005, the “Proliferation (expressed as percent relative to the non-treated well)” value ([9]; FGF-2 concentration 0.1 ng/ml) is reported as 96.2 ± 0.014% and the “Proliferation (expressed as percent relative to the non-treated well)” value ([9]; FGF-2 concentration 0.25 ng/ml) is reported as 111 ± 0.006%. For the same molecule, the “Proliferation (expressed as percent relative to the non-treated well)” value ([9]; FGF-2 concentration 0.5 ng/ml) was 123.7 ± 0.005%, the “Proliferation (expressed as percent relative to the non-treated well)” value ([9]; FGF-2 concentration 0.75 ng/ml) was 132.5 ± 0.004% and the “Proliferation (expressed as percent relative to the non-treated well)” value ([9]; FGF-2 concentration 1 ng/ml) was 146.4 ± 0.01%.

For chondroitin sulfate, the “FGF-2 protection by GAGs of the skin” value (FGF-2 [1]; chondroitin sulfate solutions at 0.1%, 0.01%, 0.001%, further diluted 1/10, 45° C. 2.15 hrs) was less than 100% and the “FGF-2 protection … (in words)” value (FGF-2 [1]; [11]) was “depends on its dose”.

For dermatan sulfate, the “FGF-2 protection … (in words)” value (FGF-2 [1]; [11]) was “protects FGF-2”.

In the case of hyaluronic acid [Hyaluronan], the “FGF-2 protection … (in words)” value (FGF-2 [1]; [11]) is reported as “by no means allows FGF-2 to be protected”.

In the case of `O=C1O[C@H]([C@@H](O)CO)C(O)=C1O` [Vitamin C, vitamin C], the “% control (collagen synthesis)” value (normal human fibroblasts [10]) is reported as 170% and the “cpm (3H-proline incorporation)” value (normal human fibroblasts [10]) is reported as 10185 cpm.

B1: decorin: proteoglycan consisting of chondroitin sulfate and dermatan sulfate chains (protein, UniProt P07585 31-359, looked up)
Decorin: DEASGIGPEVPDDRDFEPSLGPVCPFRCQCHLRVVQCSDLGLDKVPKDLPPDTTLLDLQNNKITEIKDGDFKNLKNLHALILVNNKISKVSPGAFTPLVKLERLYLSKNQLKELPEKMPKTLQELRAHENEITKVRKVTFNGLNQMIVIELGTNPLKSSGIENGAFQGMKKLSYIRIADTNITSIPQGLPPSLTELHLDGNKISRVDAASLKGLNNLAKLGLSFNSISAVDNGSLANTPHLRELHLDNNKLTRVPGGLAEHKYIQVVYLHNNNISVVGSSDFCPPGHNTKKASYSGVSLFSNPVQYWEIQPSTFRCVYVRSAIQLGNYK
For B1, the “FGF-2 protection … (in words)” value (FGF-2 [1]; [11]) was “inefficient”.
